Assay results taken from ChEMBL document CHEMBL1201862, “PubChem BioAssay data set” (2004).
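Values below derive from 48-hour exposures of cells grown in 96-well plates, with endpoints linearly interpolated between the two concentrations bracketing the appropriate inhibition level. GI50 marks 50% less growth.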 Active and inactive are the calls of the source. Rule as the data show it: active = GI50 up to about 1.1 µM and inactive = higher.

Experiments:
Experiment in all cases: NCI anticancer screen, dose series, 48 h
UACC-257 = test system: UACC-257
KM12 = test system: KM12
SK-MEL-5 = test system: SK-MEL-5
OVCAR-4 = test system: OVCAR-4
K562 = test system: K562
SN12C = test system: SN12C
NCI-H226 = test system: NCI-H226
MDA-N = test system: MDA-N
RPMI-8226 = test system: RPMI-8226
UO-31 = test system: UO-31
A549 = test system: A549
OVCAR-3 = test system: OVCAR-3
NCI-H23 = test system: NCI-H23
HL-60 = test system: HL-60
ACHN = test system: ACHN
RXF 393 = test system: RXF 393
A498 = test system: A498

Measured: GI50

Cc1ccc(C(=O)N/N=C(\N=N\c2ccccc2)c2ccc(N(C)C)cc2)cc1
inactive: UACC-257 > 100 µM | KM12 71.1 µM | SK-MEL-5 92 µM | OVCAR-4 16.3 µM | K562 52.2 µM | SN12C > 100 µM | NCI-H226 > 100 µM | MDA-N 29.4 µM | RPMI-8226 > 100 µM | UO-31 > 100 µM | A549 > 100 µM | OVCAR-3 > 100 µM | NCI-H23 > 100 µM | HL-60 > 100 µM

CCC(=O)C(C(C)/C=C/CCSc1ccccc1)C(O)CCCCCC(=O)OC (configuration not stated)
inactive: UACC-257 58.9 µM | KM12 40.6 µM | SK-MEL-5 36.8 µM | OVCAR-4 > 100 µM | K562 46.3 µM | SN12C > 100 µM | NCI-H226 > 100 µM | MDA-N > 100 µM | RPMI-8226 > 100 µM | ACHN > 100 µM | RXF 393 > 100 µM | UO-31 > 100 µM | A549 91.6 µM | OVCAR-3 > 100 µM | NCI-H23 77.3 µM

CC(=O)C1C(=O)C(=O)N(c2cccc([N+](=O)[O-])c2)C1=O (configuration not stated)
inactive: UACC-257 > 100 µM | KM12 > 100 µM | SK-MEL-5 > 100 µM | OVCAR-4 > 100 µM | SN12C > 100 µM | NCI-H226 > 100 µM | MDA-N > 100 µM | ACHN > 100 µM | RXF 393 > 100 µM | UO-31 > 100 µM | A549 > 100 µM | OVCAR-3 > 100 µM | NCI-H23 > 100 µM | HL-60 > 100 µM

O=c1c2cc(S(=O)(=O)Nc3ccccc3Cl)ccc2ncn1NS(=O)(=O)c1ccc(Br)cc1
inactive: UACC-257 > 37.5 µM | KM12 > 37.5 µM | OVCAR-4 > 37.5 µM | K562 17.8 µM | SN12C > 37.5 µM | NCI-H226 > 37.5 µM | MDA-N > 37.5 µM | RPMI-8226 > 37.5 µM | ACHN > 37.5 µM | UO-31 > 37.5 µM | A549 > 37.5 µM | OVCAR-3 > 37.5 µM | NCI-H23 > 37.5 µM | HL-60 > 37.5 µM

COC(=O)C1=C(C(=O)NNc2ccccc2)N(c2cccnc2Cl)C(c2ccccc2)=CC1c1ccccc1 (configuration not stated)
inactive: UACC-257 41.4 µM | KM12 29.6 µM | SK-MEL-5 34 µM | A498 > 100 µM | OVCAR-4 > 100 µM | K562 20 µM | SN12C > 100 µM | NCI-H226 > 100 µM | MDA-N 20.5 µM | RPMI-8226 14.1 µM | ACHN 76.7 µM | A549 40.9 µM | OVCAR-3 31.7 µM | NCI-H23 73.8 µM | HL-60 37.2 µM

CCOC(=O)C1Cc2ccc(C)cc2C1=O (configuration not stated)
inactive: UACC-257 > 100 µM | KM12 > 100 µM | SK-MEL-5 72.1 µM | OVCAR-4 81.7 µM | K562 31.4 µM | SN12C 82.6 µM | NCI-H226 > 100 µM | MDA-N > 100 µM | RPMI-8226 41.1 µM | ACHN > 100 µM | UO-31 48.6 µM | A549 > 100 µM | OVCAR-3 46.9 µM | NCI-H23 55.6 µM | HL-60 23.6 µM

N#CC(C#N)=Cc1ccc2c(c1)OC(Cl)O2 (configuration not stated)
inactive: UACC-257 21.7 µM | KM12 20.4 µM | SK-MEL-5 19.1 µM | OVCAR-4 42.2 µM | K562 11.8 µM | SN12C 24.9 µM | NCI-H226 20.2 µM | MDA-N 16 µM | RPMI-8226 17.8 µM | ACHN 19.9 µM | RXF 393 28.5 µM | UO-31 16.9 µM | A549 38.8 µM | OVCAR-3 22.1 µM | NCI-H23 31.1 µM | HL-60 6.92 µM

Cc1nc(=O)[nH]c2s/c(=N/C3CCCCC3)n(C3CCCCC3)c(=O)c12
inactive: UACC-257 > 100 µM | KM12 > 100 µM | SK-MEL-5 > 100 µM | A498 > 100 µM | OVCAR-4 > 100 µM | K562 > 100 µM | SN12C > 100 µM | NCI-H226 > 100 µM | MDA-N > 100 µM | RPMI-8226 > 100 µM | ACHN > 100 µM | UO-31 > 100 µM | A549 > 100 µM | OVCAR-3 > 100 µM | NCI-H23 > 100 µM | HL-60 > 100 µM

CN1C(=O)CC2CCC(=O)N2c2cccnc21 (configuration not stated)
inactive: UACC-257 > 100 µM | KM12 > 100 µM | SK-MEL-5 > 100 µM | OVCAR-4 > 100 µM | K562 > 100 µM | SN12C > 100 µM | NCI-H226 > 100 µM | MDA-N > 100 µM | RPMI-8226 > 100 µM | ACHN > 100 µM | UO-31 > 100 µM | A549 > 100 µM | OVCAR-3 > 100 µM | NCI-H23 > 100 µM | HL-60 > 100 µM

NCCCc1nonc1C(=O)O
inactive: UACC-257 > 100 µM | KM12 > 100 µM | SK-MEL-5 > 100 µM | OVCAR-4 > 100 µM | K562 > 100 µM | SN12C > 100 µM | NCI-H226 > 100 µM | MDA-N > 100 µM | RPMI-8226 > 100 µM | ACHN > 100 µM | RXF 393 > 100 µM | UO-31 > 100 µM | A549 > 100 µM | OVCAR-3 > 100 µM | NCI-H23 > 100 µM | HL-60 > 100 µM

S=C(Nc1ccc(/N=N/c2ccccc2)cc1)SCc1ccccc1
inactive: UACC-257 16.3 µM | KM12 16.2 µM | SK-MEL-5 15.7 µM | A498 19.9 µM | OVCAR-4 16.1 µM | K562 19.5 µM | SN12C 15.7 µM | NCI-H226 18.9 µM | RPMI-8226 5.04 µM | ACHN 17.5 µM | RXF 393 19.6 µM | UO-31 18.8 µM | A549 16.9 µM | OVCAR-3 15.6 µM | NCI-H23 16.4 µM

COC(=O)C1CCC(=O)N1CN(C(C)=O)c1ccccc1 (configuration not stated)
inactive: UACC-257 > 100 µM | KM12 > 100 µM | SK-MEL-5 > 100 µM | A498 > 100 µM | OVCAR-4 > 100 µM | K562 > 100 µM | SN12C > 100 µM | NCI-H226 > 100 µM | MDA-N > 100 µM | RPMI-8226 > 100 µM | ACHN > 100 µM | UO-31 > 100 µM | A549 > 100 µM | OVCAR-3 > 100 µM | NCI-H23 > 100 µM | HL-60 > 100 µM

CC[C@@H]1C[C@@H](O)[C@@H]2[C@H](O)[C@H](O)CN2C1
inactive: UACC-257 > 100 µM | KM12 > 100 µM | SK-MEL-5 > 100 µM | A498 > 100 µM | OVCAR-4 > 100 µM | K562 > 100 µM | SN12C > 100 µM | NCI-H226 > 100 µM | MDA-N > 100 µM | RPMI-8226 > 100 µM | ACHN > 100 µM | UO-31 > 100 µM | A549 > 100 µM | OVCAR-3 > 100 µM | NCI-H23 > 100 µM | HL-60 > 100 µM
